Reference: publication PMC11748363, “Antimicrobial and Antiproliferative Properties of 2‐Phenyl‐N‐(Pyridin‐2‐yl)acetamides” (Chemical Biology & Drug Design, 2025)
Like-named read-outs stand apart in the source and are kept apart here.

Key:
[1] = test system: Aspergillus flavus CCM 8363; assay: Antifungal microdilution broth MIC, AFla
[2] = test system: Lichtheimia corymbifera CCM 8077; assay: Antifungal microdilution broth MIC, LC
[3] = test system: Candida krusei CCM 8271, ATCC 6258; assay: Antifungal microdilution broth MIC, CK; conditions: Pichia kudriavzevii; for IC90: ATCC6258|CCM8271, 24 h
[4] = test system: Trichophyton interdigitale CCM 8377, ATCC 9533; assay: Antifungal microdilution broth MIC, TI; conditions: Trichophyton interdigitale
[5] = test system: Candida parapsilosis CCM 8260, ATCC 22019; assay: Antifungal microdilution broth MIC, CP; conditions: Lodderomyces parapsilosis
[6] = test system: Aspergillus fumigatus ATCC 204305; assay: Antifungal microdilution broth MIC, AF
[7] = test system: Candida albicans CCM 8320, ATCC 24433; assay: Antifungal microdilution broth MIC, CA; conditions: for IC90: ATCC24433|CCM8320, 24 h
[8] = test system: Candida tropicalis CCM 8264, ATCC 750; assay: Antifungal microdilution broth MIC, CT; conditions: for IC90: ATCC750|CCM8264, 24 h
[9] = test system: Mycobacterium tuberculosis H37Ra; assay: Antimycobacterial microdilution broth MIC (resazurin), Mtb H37Ra; type: cell-based; conditions: Mycobacterium tuberculosis, H37RA
[10] = test system: Staphylococcus aureus subsp. aureus CCM 4750, ATCC 43300 (MRSA); assay: Antibacterial microdilution broth MIC, MRSA; type: cell-based; conditions: Staphylococcus aureus
HepG2 cell line = assay: Cytotoxicity CellTiter 96, HepG2; type: cell-based, human; conditions: 24 h incubation, ^c compound precipitated in the testing medium, ^d over the limit of tested concentrations
[11] = test system: Pseudomonas aeruginosa CCM 3955, ATCC 27853; assay: Antibacterial microdilution broth MIC, PA; type: cell-based
[12] = test system: Mycolicibacterium smegmatis DSM 43465; assay: Antimycobacterial microdilution broth MIC (resazurin), M. smegmatis; type: cell-based
[13] = test system: Klebsiella pneumoniae CCM 4415, ATCC 10031; assay: Antibacterial microdilution broth MIC, KP
[14] = test system: Staphylococcus epidermidis CCM 4418, ATCC 12228; assay: Antibacterial microdilution broth MIC, SE; type: cell-based
[15] = test system: Escherichia coli CCM 3954, ATCC 25922; assay: Antibacterial microdilution broth MIC, EC; type: cell-based
[16] = test system: Staphylococcus aureus CCM 4223, ATCC 29213; assay: Antibacterial microdilution broth MIC, SA; type: cell-based; conditions: Staphylococcus aureus
[17] = test system: Acinetobacter baumannii DSM 30007, ATCC 19606; assay: Antibacterial microdilution broth MIC, ACI; type: cell-based
[18] = test system: Enterococcus faecalis CCM 4224, ATCC 29212; assay: Antibacterial microdilution broth MIC, EF; type: cell-based
[19] = test system: Mycolicibacterium aurum DSM 43999; assay: Antimycobacterial microdilution broth MIC (resazurin), M. aurum; type: cell-based
[20] = CCM8363, 48 h, read-out: MIC visual detection, AFla
[21] = CCM8077, 48 h, read-out: MIC visual detection, LC
[22] = 24 h, read-out: MIC visual detection, CK
[23] = ATCC9533|CCM8377, 48 h, read-out: MIC visual detection, TI
[24] = ATCC22019|CCM8260, 24 h, read-out: MIC visual detection, CP
[25] = ATCC204305, 48 h, read-out: MIC visual detection, AF
[26] = 24 h, read-out: MIC visual detection, CA
[27] = 24 h, read-out: MIC visual detection, CT
[28] = read-out: MIC Mtb H37Ra (μg/mL)

C[C@@H]1[C@H](O)[C@@H](C)/C=C/C=C/C=C/C=C/C=C/C=C/C=C/[C@H](O[C@@H]2O[C@H](C)[C@@H](O)[C@H](N)[C@@H]2O)C[C@@H]2O[C@](O)(C[C@@H](O)C[C@@H](O)[C@H](O)CC[C@@H](O)C[C@@H](O)CC(=O)O[C@H]1C)C[C@H](O)[C@H]2C(=O)O [Amphotericin B, amphotericin B, reference compound]
1 µg/mL: IC90 ([2]; CCM8077, 48 h, read-out: Amphotericin B - IC90 spectrophotometric detection, LC) | MIC [2, 21] | MIC [3, 22] | IC90 ([3]; read-out: Amphotericin B - IC90 spectrophotometric detection, CK) | IC90 ([4]; ATCC9533|CCM8377, 48 h, read-out: Amphotericin B - IC90 spectrophotometric detection, TI) | MIC [4, 23] | MIC [7, 26] | IC90 ([7]; read-out: Amphotericin B - IC90 spectrophotometric detection, CA) | MIC [8, 27] | IC90 ([8]; read-out: Amphotericin B - IC90 spectrophotometric detection, CT)
0.5 µg/mL: IC90 ([5]; ATCC22019|CCM8260, 24 h, read-out: Amphotericin B - IC90 spectrophotometric detection, CP) | MIC [5, 24]
4 µg/mL: IC90 ([1]; CCM8363, 48 h, read-out: Amphotericin B - IC90 spectrophotometric detection, AFla) | MIC [1, 20] | IC90 ([6]; ATCC204305, 48 h, read-out: Amphotericin B - IC90 spectrophotometric detection, AF) | MIC [6, 25]

O=C(O)c1cn(C2CC2)c2cc(N3CCNCC3)c(F)cc2c1=O [CIP, ciprofloxacin, reference compound]
0.125 to 0.25 µg/mL: MIC [9, 28]
0.38 to 0.75 µM: MIC ([9]; read-out: MIC Mtb H37Ra (μM))

O=C(Cc1ccccc1)Nc1ccccn1 [Compound 1]
31.2 µg/mL: MIC [9, 28]
62.5 µg/mL: MIC ([12]; DSM43465, read-out: MIC M. smegmatis)
> 1000 µM: IC50 (HepG2 cell line)
> 500 µM: MIC ([1]; CCM8363, 24 h, read-out: MIC AFla 24h) | MIC ([1]; CCM8363, 48 h, read-out: MIC AFla 48h) | MIC ([2]; CCM8077, 24 h, read-out: MIC LC 24h) | MIC ([2]; CCM8077, 48 h, read-out: MIC LC 48h) | MIC ([10]; 24 h, read-out: MIC MRSA 24h) | MIC ([10]; 48 h, read-out: MIC MRSA 48h) | IC50 (HepG2 cell line; Homo sapiens, HepG2, 24 h) | MIC ([11]; 24 h, read-out: MIC PA 24h) | MIC ([11]; 48 h, read-out: MIC PA 48h) | MIC ([6]; ATCC204305, 24 h, read-out: MIC AF 24h) | MIC ([6]; ATCC204305, 48 h, read-out: MIC AF 48h) | MIC KP 24h ([13]; 24h) | MIC KP 48h ([13]; 48h) | MIC ([14]; 24 h, read-out: MIC SE 24h) | MIC ([14]; 48 h, read-out: MIC SE 48h) | MIC ([15]; 24 h, read-out: MIC EC 24h) | MIC ([15]; 48 h, read-out: MIC EC 48h) | MIC ([16]; 24 h, read-out: MIC SA 24h) | MIC ([16]; 48 h, read-out: MIC SA 48h) | MIC ([17]; 24 h, read-out: MIC ACI 24h) | MIC ([17]; 48 h, read-out: MIC ACI 48h) | MIC ([18]; 24 h, read-out: MIC EF 24h) | MIC ([18]; 48 h, read-out: MIC EF 48h)
250 µg/mL: MIC ([19]; DSM43999, read-out: MIC M. aurum)
500 µM: MIC ([3]; 24 h, read-out: MIC CK 24h) | MIC ([3]; 48 h, read-out: MIC CK 48h) | MIC ([4]; 72 h, read-out: MIC TI 72h) | MIC ([4]; 120 h, read-out: MIC TI 120h) | MIC ([5]; 24 h, read-out: MIC CP 24h) | MIC ([5]; 48 h, read-out: MIC CP 48h) | MIC ([7]; 24 h, read-out: MIC CA 24h) | MIC ([7]; 48 h, read-out: MIC CA 48h) | MIC ([8]; 24 h, read-out: MIC CT 24h) | MIC ([8]; 48 h, read-out: MIC CT 48h)
147 µM: MIC ([9]; read-out: MIC Mtb H37Ra (μM))

CNC(C)C1CCC(N)C(OC2C(N)CC(N)C(OC3OCC(C)(O)C(NC)C3O)C2O)O1 (stereo not drawn) [Gentamicin, gentamicin, reference compound]
> 8 µg/mL: MIC ([10]; read-out: MIC (µg/mL) MRSA, Gentamicin – spectrophotometric detection, internal quality controls, 24h) | MIC ([10]; internal quality controls, 24h, 95% inhibition of growth, 530 nm, read-out: MIC (µg/mL) MRSA, spectrophotometric detection) | MIC ([18]; internal quality controls, 24h, 95% inhibition of growth, 530 nm, read-out: MIC (µg/mL) EF, spectrophotometric detection) | MIC ([18]; read-out: MIC (µg/mL) EF, Gentamicin – spectrophotometric detection, internal quality controls, 24h)
0.0625 µg/mL: MIC ([14]; internal quality controls, 24h, 95% inhibition of growth, 530 nm, read-out: MIC (µg/mL) SE, spectrophotometric detection) | MIC ([14]; read-out: MIC (µg/mL) SE, Gentamicin – spectrophotometric detection, internal quality controls, 24h)
0.5 µg/mL: MIC ([11]; internal quality controls, 24h, 95% inhibition of growth, 530 nm, read-out: MIC (µg/mL) PA, spectrophotometric detection) | MIC ([11]; read-out: MIC (µg/mL) PA, Gentamicin – spectrophotometric detection, internal quality controls, 24h) | MIC ([16]; read-out: MIC (µg/mL) SA, Gentamicin – spectrophotometric detection, internal quality controls, 24h)
1 µg/mL: MIC ([15]; internal quality controls, 24h, 95% inhibition of growth, 530 nm, read-out: MIC (µg/mL) EC, spectrophotometric detection) | MIC ([15]; read-out: MIC (µg/mL) EC, Gentamicin – spectrophotometric detection, internal quality controls, 24h) | MIC ([16]; internal quality controls, 24h, 95% inhibition of growth, 530 nm, read-out: MIC (µg/mL) SA, spectrophotometric detection)
8 µg/mL: MIC ([17]; internal quality controls, 24h, 95% inhibition of growth, 530 nm, read-out: MIC (µg/mL) ACI, spectrophotometric detection) | MIC ([17]; read-out: MIC (µg/mL) ACI, Gentamicin – spectrophotometric detection, internal quality controls, 24h)

CO[C@H]1/C=C/O[C@@]2(C)Oc3c(C)c(O)c4c(O)c(c(/C=N/N5CCN(C)CC5)c(O)c4c3C2=O)NC(=O)/C(C)=C\C=C\[C@H](C)[C@H](O)[C@@H](C)[C@@H](O)[C@@H](C)[C@H](OC(C)=O)[C@@H]1C [RIF, rifampicin, reference compound]
0.0037 µM: MIC ([9]; read-out: MIC Mtb H37Ra (μM))
0.39 to 0.78 µg/mL: MIC ([19]; DSM43999, read-out: MIC M. aurum (μg/mL))
0.00313 µg/mL: MIC [9, 28]
1.56 to 6.25 µg/mL: MIC ([12]; DSM43465, read-out: MIC M. smegmatis (μg/mL))

C[C@@H](c1ncncc1F)[C@](O)(Cn1cncn1)c1ccc(F)cc1F [Voriconazole, voriconazole, reference compound]
1 µg/mL: IC90 ([4]; ATCC9533|CCM8377, 48 h, read-out: Voriconazole - IC90 spectrophotometric detection, TI) | MIC [6, 25]
2 µg/mL: IC90 ([1]; CCM8363, 48 h, read-out: Voriconazole - IC90 spectrophotometric detection, AFla) | IC90 ([8]; read-out: Voriconazole - IC90 spectrophotometric detection, CT)
0.25 µg/mL: IC90 ([3]; read-out: Voriconazole - IC90 spectrophotometric detection, CK) | IC90 ([6]; ATCC204305, 48 h, read-out: Voriconazole - IC90 spectrophotometric detection, AF)
> 16 µg/mL: MIC [1, 20] | MIC [2, 21] | IC90 ([2]; CCM8077, 48 h, read-out: Voriconazole - IC90 spectrophotometric detection, LC) | MIC [3, 22] | MIC [4, 23] | MIC [5, 24] | MIC [7, 26] | MIC [8, 27]
0.03 µg/mL: IC90 ([5]; ATCC22019|CCM8260, 24 h, read-out: Voriconazole - IC90 spectrophotometric detection, CP) | IC90 ([7]; read-out: Voriconazole - IC90 spectrophotometric detection, CA)
